Data from US8597901B2, “2,5-diketo-L-gluconic acid reductases and methods of use” (Danisco US Inc., priority 2000, dated 2013).
Where two headings read alike, the source gives them in different places.

Tests used:
[1] = tested on: environmental 2,5-diketo-D-gluconic acid reductase DKGRc (pI-14, SEQ ID NO: 8) variant R238Q; assay: Kinetic parameters of purified R238Q mutant of DKGRc; format: biochemical, environmental DNA (uncultured, soil)
Source text: Site specific mutants of DKGRc were constructed by overlap extension PCR. […] The oligonucleotides:
were complementary to the antisense and sense strands, respectively, and introduced the changes K232Q and R238Q, respectively. The bases that differ from the native sequence are underlined. Each oligonucleotide was paired with the appropriate adapter primer (i.e. primers for amplifying the gene for insertion into expression vectors) in PCR's to generate fragments of the DKGRc gene that incorporated one of the two changes. Primers were also synthesized that matched the native DNA sequence. When used with the appropriate adapter primer, these generated an unmodified fragment of the gene. […] The amplification of the full-length genes was driven by addition of both adapter primers.

[2] = tested on: environmental 2,5-diketo-D-gluconic acid reductase (form not stated); conditions: read-out: apparent Km of stimulation by inorganic phosphate, NADH-dependent activity

SMILES: O=C(O)C(=O)[C@@H](O)[C@H](O)C(=O)CO [DKG, 2,5-diketo-D-gluconic acid]
- Km for 2,5-diketo-D-gluconic acid, increase over native ([1]; R238Q versus native DKGRc): 7.7 fold
- Km ([1]; R238Q, read-out: Km for 2,5-diketo-D-gluconic acid): 440 µM

SMILES: NC(=O)C1=CN([C@@H]2O[C@H](COP(=O)(O)OP(=O)(O)OC[C@H]3O[C@@H](n4cnc5c(N)ncnc54)[C@H](OP(=O)(O)O)[C@@H]3O)[C@@H](O)[C@H]2O)C=CC1 [NADPH]
- Km for NADPH, increase over native ([1]; R238Q versus native DKGRc): 18 fold
- kcat, increase over native ([1]; R238Q versus native DKGRc, NADPH): 3.5 fold
- Km ([1]; read-out: Km, nadph, R238Q, NADPH as cosubstrate): 55 µM

SMILES: O=P(O)(O)O [Pi]
- Km [2]: 1300 µM

SMILES: NC(=O)C1=CN([C@@H]2O[C@H](COP(=O)(O)OP(=O)(O)OC[C@H]3O[C@@H](n4cnc5c(N)ncnc54)[C@H](O)[C@@H]3O)[C@@H](O)[C@H]2O)C=CC1 [NADH]
- Km for NADH, effect of mutation ([1]; R238Q versus native DKGRc): not affected by the mutation
- catalytic efficiency with NADH as cosubstrate, increase over native ([1]; R238Q versus native DKGRc): 7 fold
- kcat ([1]; R238Q, NADH as cosubstrate): 12 S^−1
- Km ([1]; R238Q, NADH as cosubstrate, read-out: Km, nadh): 1900 µM
